Experimental data: patent US10981879B2, “Thioether triazolopyridine and triazolopyrimidine inhibitors of myeloperoxidase” (BRISTOL-MYERS SQUIBB COMPANY, priority 2014, dated 2021)

target: myeloperoxidase (MPO) (Homo sapiens (Human), UniProt P05164); experiment: MPO chlorination assay (APF); assay type: biochemical; details: MPO chlorination assay, ranges given; read-out: MPO chlorination assay IC50
Procedure: MPO chlorination activity was measured in 100 mM KPi (pH 7.4) by utilizing the non-fluorescent reagent Aminophenyl fluorescein (APF, Invitrogen catalog #A36003). APF is cleaved by (—OCl) to yield the fluorescent compound fluorescein. Reactions were carried out in 50 μL total volume by adding a 25 μL mixture of 200 pM myeloperoxidase and 120 mM NaCl to 100 nL inhibitor in 100% DMSO in a 384 well, non-binding surface clear bottom plate (CORNING® #3655). Enzyme, inhibitor, and chloride were preincubated for ten minutes at rt.
After the ten minute preincubation, 25 μL of an APF mixture containing […], 120 mM NaCl and 10 μM H2O2 was added to the plate using the internal dispensing system of a Hammatsu FDSS 6000. Kinetic determinations were carried out immediately on the FDSS 6000 (3 minute kinetic read, 1 read every second, ex: 485 nm, em: 535 nm). IC50 values for inhibitors were calculated by taking the slope of the linear portion of the kinetic measurement (20 seconds to ˜80-120 secs). […]
[formula] where A=minimal Y value (activity level of inhibited sample), B=maximal Y value (activity level of uninhibited sample), C=Log IC50, D=Hill Slope, x=concentration of inhibitor. EPX Bromination Assay

myeloperoxidase (MPO), sequence (P05164 49-745): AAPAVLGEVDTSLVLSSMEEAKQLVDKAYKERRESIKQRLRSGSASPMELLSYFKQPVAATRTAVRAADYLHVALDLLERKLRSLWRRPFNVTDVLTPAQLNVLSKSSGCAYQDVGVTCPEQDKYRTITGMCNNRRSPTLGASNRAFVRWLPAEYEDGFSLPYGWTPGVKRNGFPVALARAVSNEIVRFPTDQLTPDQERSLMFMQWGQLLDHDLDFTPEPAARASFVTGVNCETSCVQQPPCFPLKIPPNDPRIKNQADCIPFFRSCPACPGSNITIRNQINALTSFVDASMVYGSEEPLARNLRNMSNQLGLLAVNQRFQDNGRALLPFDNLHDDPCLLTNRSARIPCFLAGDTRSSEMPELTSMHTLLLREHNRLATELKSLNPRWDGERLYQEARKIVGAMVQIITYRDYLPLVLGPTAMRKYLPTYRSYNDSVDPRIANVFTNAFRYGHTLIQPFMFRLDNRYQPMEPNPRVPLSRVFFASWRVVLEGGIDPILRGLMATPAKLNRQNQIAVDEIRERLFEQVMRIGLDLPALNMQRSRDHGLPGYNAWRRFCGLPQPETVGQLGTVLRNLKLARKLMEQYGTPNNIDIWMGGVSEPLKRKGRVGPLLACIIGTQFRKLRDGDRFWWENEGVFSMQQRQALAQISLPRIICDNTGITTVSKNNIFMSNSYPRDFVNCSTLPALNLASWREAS

SMILES | IC50
Nc1cc(SC(C(=O)c2ccccc2)c2ccccc2)c2nn[nH]c2n1 (centres unmarked) [Example 40, 2-((5-amino-3H-[1,2,3]triazolo[4,5-b]pyridin-7-yl)thio)-1,2-diphenylethanone] | 200 to 1000 nM
CS(=O)(=O)c1cc(Br)cc(F)c1CSc1cc(N)nc2[nH]nnc12 [Example 42, 7-((4-bromo-2-fluoro-6-(methylsulfonyl)benzyl)thio)-3H-[1,2,3]triazolo[4,5-b]pyridin-5-amine] | ≤ 60 nM
Nc1cc(SCc2c(F)ccc(Br)c2F)c2nn[nH]c2n1 [Example 43, 7-((3-bromo-2,6-difluorobenzyl)thio)-3H-[1,2,3]triazolo[4,5-b]pyridin-5-amine] | ≤ 60 nM
CN(C)CCC(Sc1cc(N)nc2[nH]nnc12)c1ccccc1 (centres unmarked) [Example 44, 7-((3-(dimethylamino)-1-phenylpropyl)thio)-3H-[1,2,3]triazolo[4,5-b]pyridin-5-amine] | 60 to 200 nM
Nc1cc(SC(c2ccccc2)C(O)c2ccccc2)c2nn[nH]c2n1 (centres unmarked) [Example 46, 2-((5-amino-3H-[1,2,3]triazolo[4,5-b]pyridin-7-yl)thio)-1,2-diphenylethanol] | 60 to 200 nM
N#Cc1ccc(CSc2cc(N)nc3[nH]nnc23)c(F)c1 [Example 47, 4-(((5-amino-3H-[1,2,3]triazolo[4,5-b]pyridin-7-yl)thio)methyl)-3-fluorobenzonitrile] | ≤ 60 nM
Nc1cc(SCc2c(Cl)ccnc2Cl)c2nn[nH]c2n1 [Example 48, 7-(((2,4-dichloropyridin-3-yl)methyl)thio)-3H-[1,2,3] triazolo[4,5-b]pyridin-5-amine] | 60 to 200 nM
Nc1cc(SCc2cc(OC(F)(F)F)ccc2F)c2nn[nH]c2n1 [Example 49, 7-((2-fluoro-5-(trifluoromethoxy)benzyl)thio)-3H-[1,2,3]triazolo[4,5-b]pyridin-5-amine] | 60 to 200 nM
COC(=O)C(Sc1cc(N)nc2[nH]nnc12)c1ccccc1Cl (centres unmarked) [Example 50, methyl 2-((5-amino-3H-[1,2,3]triazolo[4,5-b]pyridin-7-yl)thio)-2-(2-chlorophenyl)acetate] | 60 to 200 nM
COC(=O)c1ccc(F)c(CSc2cc(N)nc3[nH]nnc23)c1 [Example 52, methyl 3-(((5-amino-3H-[1,2,3]triazolo[4,5-b]pyridin-7-yl)thio)methyl)-4-fluorobenzoate] | 60 to 200 nM
CS(=O)(=O)c1ccc(F)cc1CSc1cc(N)nc2[nH]nnc12 [Example 53, 7-((5-fluoro-2-(methylsulfonyl)benzyl)thio)-3H-[1,2,3]triazolo[4,5-b]pyridin-5-amine] | 60 to 200 nM
CC(Sc1cc(N)nc2[nH]nnc12)c1ccccc1S(C)(=O)=O (centres unmarked) [Example 54, 7-((1-(2-(methylsulfonyl)phenyl)ethyl)thio)-3H-[1,2,3]triazolo[4,5-b]pyridin-5-amine] | 60 to 200 nM
CC1(NC(=O)c2ccc(F)c(CSc3cc(N)nc4[nH]nnc34)c2)CC1 [Example 55, 3-(((5-amino-3H-[1,2,3]triazolo[4,5-b]pyridin-7-yl)thio)methyl)-4-fluoro-N-(1-methylcyclopropyl) benzamide] | 200 to 1000 nM
N#Cc1cc(F)ccc1CSc1cc(N)nc2[nH]nnc12 [Example 56, 2-(((5-amino-3H-[1,2,3]triazolo[4,5-b]pyridin-7-yl)thio)methyl)-5-fluorobenzonitrile] | ≤ 60 nM
Cc1cc(CSc2cc(N)nc3[nH]nnc23)n(C)n1 [Example 58, 7-(((1,3-dimethyl-1H-pyrazol-5-yl)methyl)thio)-3H-[1,2,3]triazolo[4,5-b] pyridin-5-amine] | 200 to 1000 nM
Cc1nn(C)c(Cl)c1CSc1cc(N)nc2[nH]nnc12 [Example 60, 7-(((5-chloro-1,3-dimethyl-1H-pyrazol-4-yl)methyl)thio)-3H-[1,2,3]triazolo[4,5-b]pyridin-5-amine] | ≤ 60 nM
Nc1cc(SCc2cc(Cl)ccc2S(=O)(=O)Cc2ccccc2)c2nn[nH]c2n1 [Example 61, 7-((2-(benzylsulfonyl)-5-chlorobenzyl)thio)-3H-[1,2,3]triazolo[4,5-b]pyridin-5-amine] | 60 to 200 nM
Nc1cc(SCc2nn(Cc3ccccc3)c3ccccc23)c2nn[nH]c2n1 [Example 62, 7-(((1-benzyl-1H-indazol-3-yl)methyl)thio)-3H-[1,2,3] triazolo[4,5-b]pyridin-5-amine] | 60 to 200 nM
CCc1nn(-c2ccccc2)nc1CSc1cc(N)nc2[nH]nnc12 [Example 63, 7-(((5-ethyl-2-phenyl-2H-1,2,3-triazol-4-yl)methyl)thio)-3H-[1,2,3]triazolo[4,5-b]pyridin-5-amine] | 60 to 200 nM

SMILES | IC50
Nc1cc(SCc2c(Cl)cccc2S(N)(=O)=O)c2nn[nH]c2n1 [Example 64, 2-(((5-amino-3H-[1,2,3]triazolo[4,5-b]pyridin-7-yl)thio)methyl)-3-chlorobenzenesulfonamide] | ≤ 60 nM
Cc1nn(-c2ccccc2)nc1CSc1cc(N)nc2[nH]nnc12 [Example 65, 7-(((5-methyl-2-phenyl-2H-1,2,3-triazol-4-yl)methyl)thio)-3H-[1,2,3]triazolo[4,5-b]pyridin-5-amine] | 60 to 200 nM
Cc1nn(-c2cccc(F)c2)nc1CSc1cc(N)nc2[nH]nnc12 [Example 67, 7-(((2-(3-fluorophenyl)-5-methyl-2H-1,2,3-triazol-4-yl)methyl)thio)-3H-[1,2,3] triazolo[4,5-b]pyridin-5-amine] | 200 to 1000 nM
N#Cc1cccc(F)c1CSc1cc(N)nc2[nH]nnc12 [Example 68, 2-(((5-amino-3H-[1,2,3]triazolo[4,5-b]pyridin-7-yl)thio)methyl)-3-fluorobenzonitrile] | ≤ 60 nM
COc1cccc(-n2nc(C)c(CSc3cc(N)nc4[nH]nnc34)n2)c1 [Example 69, 7-(((2-(3-methoxyphenyl)-5-methyl-2H-1,2,3-triazol-4-yl)methyl)thio)-3H-[1,2,3] triazolo[4,5-b]pyridin-5-amine] | 200 to 1000 nM
Cn1nc(-c2ccccc2)c(CSc2cc(N)nc3[nH]nnc23)c1Cl [Example 71, 7-(((5-chloro-1-methyl-3-phenyl-1H-pyrazol-4-yl)methyl)thio)-3H-[1,2,3] triazolo[4,5-b]pyridin-5-amine] | 200 to 1000 nM
N#Cc1ccc(Cl)cc1CSc1cc(N)nc2[nH]nnc12 [Example 73, 2-(((5-amino-3H-[1,2,3]triazolo[4,5-b]pyridin-7-yl)thio)methyl)-4-chlorobenzonitrile] | 60 to 200 nM
N#Cc1cc(Cl)ccc1CSc1cc(N)nc2[nH]nnc12 [Example 74, 2-(((5-amino-3H-[1,2,3]triazolo[4,5-b]pyridin-7-yl)thio)methyl)-5-chlorobenzonitrile] | ≤ 60 nM
N#Cc1c(Cl)cccc1CSc1cc(N)nc2[nH]nnc12 [Example 75, 2-(((5-amino-3H-[1,2,3]triazolo[4,5-b]pyridin-7-yl)thio)methyl)-6-chlorobenzonitrile] | 60 to 200 nM
Cc1nn(Cc2ccccc2)c(Cl)c1CSc1cc(N)nc2[nH]nnc12 [Example 76, 7-(((1-benzyl-5-chloro-3-methyl-1H-pyrazol-4-yl)methyl)thio)-3H-[1,2,3] triazolo[4,5-b]pyridin-5-amine] | 60 to 200 nM
Cn1nc(C(F)(F)F)c(CSc2cc(N)nc3[nH]nnc23)c1Cl [Example 78, 7-(((5-chloro-1-methyl-3-(trifluoromethyl)-1H-pyrazol-4-yl)methyl)thio)-3H-[1,2,3]triazolo[4,5-b] pyridin-5-amine] | ≤ 60 nM
Cc1nn(CC2CC2)c(C)c1CSc1cc(N)nc2[nH]nnc12 [Example 80, 7-(((1-(cyclopropylmethyl)-3,5-dimethyl-1H-pyrazol-4-yl)methyl)thio)-3H-[1,2,3] triazolo[4,5-b]pyridin-5-amine] | 60 to 200 nM
Cc1nn(C2CC2)c(C)c1CSc1cc(N)nc2[nH]nnc12 [Example 81, 7-(((1-cyclopropyl-3,5-dimethyl-1H-pyrazol-4-yl)methyl)thio)-3H-[1,2,3] triazolo[4,5-b]pyridin-5-amine] | 60 to 200 nM
Cc1nn(C2CCC2)c(C)c1CSc1cc(N)nc2[nH]nnc12 [Example 82, 7-(((1-cyclobutyl-3,5-dimethyl-1H-pyrazol-4-yl)methyl)thio)-3H-[1,2,3] triazolo[4,5-b]pyridin-5-amine] | 60 to 200 nM
N#Cc1ccc(C2CC2)cc1CSc1cc(N)nc2[nH]nnc12 [Example 87, 2-(((5-amino-3H-[1,2,3]triazolo[4,5-b]pyridin-7-yl)thio)methyl)-4-cyclopropylbenzonitrile] | ≤ 60 nM
N#Cc1cccc(C2CC2)c1CSc1cc(N)nc2[nH]nnc12 [Example 89, 2-(((5-amino-3H-[1,2,3]triazolo[4,5-b]pyridin-7-yl)thio)methyl)-3-cyclopropylbenzonitrile] | 60 to 200 nM
N#Cc1cccc(CSc2cc(N)nc3[nH]nnc23)c1 [Example 91, 3-(((5-amino-3H-[1,2,3]triazolo[4,5-b]pyridin-7-yl)thio)methyl)benzonitrile] | ≤ 60 nM
Nc1cc(SCc2ccccc2-c2ccccn2)c2nn[nH]c2n1 [Example 92, 7-((2-(pyridin-2-yl)benzyl)thio)-3H-[1,2,3]triazolo[4,5-b]pyridin-5-amine] | 60 to 200 nM
CN(C)Cc1cccc(CSc2cc(N)nc3[nH]nnc23)c1 [Example 93, 7-((3-((dimethylamino)methyl)benzyl)thio)-3H-[1,2,3]triazolo[4,5-b]pyridin-5-amine] | ≤ 60 nM
